Laboratory results as given in publication PMC5218480 (PLoS ONE, 2017).

Tested on: MV-4-11 cells
Assay: Gene expression microarray analysis (Affymetrix PrimeView) and GSEA
Type: cell-based, human
Set-up: RFU PODN (11730768_x_at) / Fold change /veh PODN (11730768_x_at) / RFU LINC00158 (11744669_a_at) / Fold change /veh LINC00158 (11744669_a_at) / RFU DUSP10 (11751237_a_at) / Fold change /veh DUSP10 (11751237_a_at) / RFU ID3 (11757404_x_at) / Fold change /veh ID3 (11757404_x_at) / RFU PLEKHG5 (11737974_s_at) / Fold change /veh PLEKHG5 (11737974_s_at) / RFU LRRC4B (11730491_at) / Fold change /veh LRRC4B (11730491_at) / RFU GIMAP4 (11747438_a_at) / Fold change /veh GIMAP4 (11747438_a_at) / RFU KRT8 (11758183_x_at) / Fold change /veh KRT8 (11758183_x_at) / RFU CNN1 (11734310_a_at) / Fold change /veh CNN1 (11734310_a_at) / RFU VPS37D (11726825_at) / Fold change /veh VPS37D (11726825_at) / RFU C10orf10 (11716522_x_at) / Fold change /veh C10orf10 (11716522_x_at) / RFU KIR2DL2 /// KIR2DL4 /// KIR2DL5A /// KIR2DL5B /// KIR2DS1 /// KIR2DS2 /// KIR2DS3 /// KIR2DS4 /// KIR3DL3 /// KIR3DL3 /// KIR3DS1 (11738374_at) / Fold change /veh KIR2DL2 /// KIR2DL4 /// KIR2DL5A /// KIR2DL5B /// KIR2DS1 /// KIR2DS2 /// KIR2DS3 /// KIR2DS4 /// KIR3DL3 /// KIR3DL3 /// KIR3DS1 (11738374_at) / RFU C1QL1 (11718748_at) / Fold change /veh C1QL1 (11718748_at) / RFU TMPRSS4 (11747572_a_at) / Fold change /veh TMPRSS4 (11747572_a_at) / RFU HAMP (11756126_x_at) / Fold change /veh HAMP (11756126_x_at) / RFU RNFT2 (11725882_a_at) / Fold change /veh RNFT2 (11725882_a_at) / RFU NR4A2 (11747474_a_at) / Fold change /veh NR4A2 (11747474_a_at) / RFU ABCC12 (11746883_a_at) / Fold change /veh ABCC12 (11746883_a_at) / RFU TMEM136 (11760407_x_at) / Fold change /veh TMEM136 (11760407_x_at) / RFU CLDN22 /// WWC2 (11732394_at) / Fold change /veh CLDN22 /// WWC2 (11732394_at) / RFU HLA-DPB1 (11760878_x_at) / Fold change /veh HLA-DPB1 (11760878_x_at) / RFU SPINT1 (11716480_a_at) / Fold change /veh SPINT1 (11716480_a_at) / RFU GAP43 (11754022_s_at) / Fold change /veh GAP43 (11754022_s_at) / RFU A4GNT (11735810_at) / Fold change /veh A4GNT (11735810_at) / RFU PRB3 (11715151_x_at) / Fold change /veh PRB3 (11715151_x_at) / RFU TUBB4B (11761932_at) / Fold change /veh TUBB4B (11761932_at) / RFU CAPN14 (11732068_a_at) / Fold change /veh CAPN14 (11732068_a_at) / RFU TMCC2 (11721928_a_at) / Fold change /veh TMCC2 (11721928_a_at) / RFU IRGQ (11745062_a_at) / Fold change /veh IRGQ (11745062_a_at) / RFU FAM174B (11720279_a_at) / Fold change /veh FAM174B (11720279_a_at) / RFU TMPRSS4 (11748680_a_at) / Fold change /veh TMPRSS4 (11748680_a_at) / RFU FAM212B (11763350_a_at) / Fold change /veh FAM212B (11763350_a_at) / RFU PLEKHG5 (11743358_a_at) / Fold change /veh PLEKHG5 (11743358_a_at) / RFU ZSCAN30 (11745921_a_at) / Fold change /veh ZSCAN30 (11745921_a_at) / RFU CMKLR1 (11741424_a_at) / Fold change /veh CMKLR1 (11741424_a_at) / RFU LOC101060620 /// MAPK8IP1 (11723275_at) / Fold change /veh LOC101060620 /// MAPK8IP1 (11723275_at) / RFU SPTSSB (11747773_x_at) / Fold change /veh SPTSSB (11747773_x_at) / RFU PRSS12 (11739890_at) / Fold change /veh PRSS12 (11739890_at) / RFU BIN1 (11741810_x_at) / Fold change /veh BIN1 (11741810_x_at) / RFU WNT11 (11732464_a_at) / Fold change /veh WNT11 (11732464_a_at) / RFU C10orf10 (11716521_a_at) / Fold change /veh C10orf10 (11716521_a_at) / RFU C5orf56 (11738089_at) / Fold change /veh C5orf56 (11738089_at) / RFU CYB561 (11721691_x_at) / Fold change /veh CYB561 (11721691_x_at) / RFU ANKRD19P (11752326_a_at) / Fold change /veh ANKRD19P (11752326_a_at) / RFU OR2T12 /// OR2T33 /// OR2T8 (11738714_s_at) / Fold change /veh OR2T12 /// OR2T33 /// OR2T8 (11738714_s_at) / RFU VCAN (11748164_a_at) / Fold change /veh VCAN (11748164_a_at) / RFU JSRP1 (11732532_at) / Fold change /veh JSRP1 (11732532_at) / RFU KRTAP10-11 (11738290_x_at) / Fold change /veh KRTAP10-11 (11738290_x_at) / RFU MYO3A (11730013_a_at) / Fold change /veh MYO3A (11730013_a_at) / RFU EBF3 (11725865_a_at) / Fold change /veh EBF3 (11725865_a_at) / RFU CAMK2N1 (11719241_x_at) / Fold change /veh CAMK2N1 (11719241_x_at) / RFU C5orf56 (11738088_a_at) / Fold change /veh C5orf56 (11738088_a_at) / RFU OLFML3 (11715873_a_at) / Fold change /veh OLFML3 (11715873_a_at) / RFU LOC100653217 /// NTM (11731650_a_at) / Fold change /veh LOC100653217 /// NTM (11731650_a_at) / RFU MAPK11 (11762145_a_at) / Fold change /veh MAPK11 (11762145_a_at) / RFU FIZ1 (11724087_x_at) / Fold change /veh FIZ1 (11724087_x_at) / RFU OASL (11726364_x_at) / Fold change /veh OASL (11726364_x_at) / RFU SOX15 (11748057_x_at) / Fold change /veh SOX15 (11748057_x_at) / RFU CD79A (11719716_a_at) / Fold change /veh CD79A (11719716_a_at) / RFU HIST1H1D (11736915_at) / Fold change /veh HIST1H1D (11736915_at) / RFU CASKIN2 (11723855_a_at) / Fold change /veh CASKIN2 (11723855_a_at) / RFU LOC730098 (11760151_x_at) / Fold change /veh LOC730098 (11760151_x_at) / RFU OR4N2 (11742367_at) / Fold change /veh OR4N2 (11742367_at) / RFU PRRT2 (11749266_a_at) / Fold change /veh PRRT2 (11749266_a_at) / RFU SNX32 (11753110_a_at) / Fold change /veh SNX32 (11753110_a_at) / RFU CDHR5 (11726645_a_at) / Fold change /veh CDHR5 (11726645_a_at) / RFU RCAN1 (11760418_a_at) / Fold change /veh RCAN1 (11760418_a_at) / RFU FAM167A (11723789_a_at) / Fold change /veh FAM167A (11723789_a_at) / RFU FAM26E (11764081_at) / Fold change /veh FAM26E (11764081_at) / RFU ISYNA1 (11749810_s_at) / Fold change /veh ISYNA1 (11749810_s_at) / RFU ACY1 (11761880_at) / Fold change /veh ACY1 (11761880_at) / RFU 11764098_at / Fold change /veh 11764098_at / RFU SAMD14 (11745864_x_at) / Fold change /veh SAMD14 (11745864_x_at) / RFU NPB (11741838_a_at) / Fold change /veh NPB (11741838_a_at) / RFU TMPRSS6 (11731388_a_at) / Fold change /veh TMPRSS6 (11731388_a_at) / RFU KRTAP10-2 (11738614_at) / Fold change /veh KRTAP10-2 (11738614_at) / RFU ARHGAP8 /// PRR5-ARHGAP8 (11727945_x_at) / Fold change /veh ARHGAP8 /// PRR5-ARHGAP8 (11727945_x_at) / RFU KRTAP5-7 /// NADSYN1 (11734609_at) / Fold change /veh KRTAP5-7 /// NADSYN1 (11734609_at) / RFU RASL12 (11751679_a_at) / Fold change /veh RASL12 (11751679_a_at) / RFU CDKN2B (11736163_a_at) / Fold change /veh CDKN2B (11736163_a_at) / RFU PRF1 (11729649_at) / Fold change /veh PRF1 (11729649_at) / RFU, ZNF638 /// ZNF638-IT1 / Fold change vs veh, ZNF638 /// ZNF638-IT1 / RFU, PANK3 / Fold change vs veh, PANK3 / RFU, SH3YL1 / Fold change vs veh, SH3YL1 / RFU, ZEB2 / Fold change vs veh, ZEB2 / RFU, NRIP1 / Fold change vs veh, NRIP1 / RFU, PTTG1IP / Fold change vs veh, PTTG1IP / RFU, CAPN2 / Fold change vs veh, CAPN2 / RFU, MED14 / Fold change vs veh, MED14 / RFU, SNORA58 / Fold change vs veh, SNORA58 / RFU, C1orf63 / Fold change vs veh, C1orf63 / RFU, LRRFIP1 / Fold change vs veh, LRRFIP1 / RFU, NDUFAF7 / Fold change vs veh, NDUFAF7 / RFU, SLC12A2 / Fold change vs veh, SLC12A2 / RFU, IBTK / Fold change vs veh, IBTK / RFU, ESF1 / Fold change vs veh, ESF1 / Fold change vs veh, TMEM50B / RFU, TAOK1 / Fold change vs veh, TAOK1 / RFU, ACBD3 / Fold change vs veh, ACBD3 / RFU, TMA16 / Fold change vs veh, TMA16 / RFU, RWDD3 / Fold change vs veh, RWDD3 / RFU, BCAT1 / Fold change vs veh, BCAT1 / RFU, EDEM3 / Fold change vs veh, EDEM3 / RFU, TMEM33 / Fold change vs veh, TMEM33 / RFU, WDR75 / Fold change vs veh, WDR75 / RFU, AHCTF1 / Fold change vs veh, AHCTF1 / RFU, TFRC / Fold change vs veh, TFRC / RFU, ZDHHC17 / Fold change vs veh, ZDHHC17 / RFU, NOM1 / Fold change vs veh, NOM1 / RFU, ARL8B / Fold change vs veh, ARL8B / RFU, ZBTB11 / Fold change vs veh, ZBTB11 / RFU, TAMM41 / Fold change vs veh, TAMM41 / RFU, KIAA1704 /// LOC100996395 / Fold change vs veh, KIAA1704 /// LOC100996395 / RFU, ING1 / Fold change vs veh, ING1 / RFU, TRMT61B / Fold change vs veh, TRMT61B / RFU, FUBP3 / Fold change vs veh, FUBP3 / RFU, TP53 / Fold change vs veh, TP53 / RFU, TNKS2 / Fold change vs veh, TNKS2 / RFU, ZFP14 / Fold change vs veh, ZFP14 / RFU, ACTR2 / Fold change vs veh, ACTR2 / RFU, PPP3R1 / Fold change vs veh, PPP3R1 / RFU, PIK3R1 / Fold change vs veh, PIK3R1 / RFU, HNRNPA1 / Fold change vs veh, HNRNPA1 / RFU, RNF170 / Fold change vs veh, RNF170 / RFU, ZNF28 / Fold change vs veh, ZNF28 / RFU, RNGTT / Fold change vs veh, RNGTT / RFU, OGT / Fold change vs veh, OGT / RFU, BRD1 / Fold change vs veh, BRD1 / RFU, MARS / Fold change vs veh, MARS / RFU, ZNF655 / Fold change vs veh, ZNF655 / RFU, FAHD1 / Fold change vs veh, FAHD1 / RFU, BDP1 / Fold change vs veh, BDP1 / RFU, LRRCC1 / Fold change vs veh, LRRCC1 / RFU, ARID1A / Fold change vs veh, ARID1A / RFU, ZNF146 / Fold change vs veh, ZNF146 / RFU, ZNF330 / Fold change vs veh, ZNF330 / RFU, GPN3 / Fold change vs veh, GPN3 / RFU, C9orf123 / Fold change vs veh, C9orf123 / RFU, N4BP2L2 / Fold change vs veh, N4BP2L2 / RFU, ARFIP1 / Fold change vs veh, ARFIP1 / RFU, FAM179B / Fold change vs veh, FAM179B / RFU, BCL10 / Fold change vs veh, BCL10 / RFU, UHRF1BP1L / Fold change vs veh, UHRF1BP1L / RFU, BET1 / Fold change vs veh, BET1 / RFU, CNOT2 / Fold change vs veh, CNOT2 / RFU, ZNF268 / Fold change vs veh, ZNF268 / Fold change vs veh, ZNF507 / RFU, DGCR2 / Fold change vs veh, DGCR2 / RFU, WDSUB1 / Fold change vs veh, WDSUB1 / Fold change vs veh, HSP90B1 /// MIR3652 / RFU, ADSS / Fold change vs veh, ADSS / RFU, GK / Fold change vs veh, GK / RFU, ZNF148 / Fold change vs veh, ZNF148 / RFU, TAF9 / Fold change vs veh, TAF9 / RFU, SLC1A5 / Fold change vs veh, SLC1A5 / RFU, SLMO2 / Fold change vs veh, SLMO2 / RFU, ABCC4 / Fold change vs veh, ABCC4 / RFU, LOC101060439 /// RAP1B / Fold change vs veh, LOC101060439 /// RAP1B / RFU, RFX7 / Fold change vs veh, RFX7 / RFU, GTPBP10 / Fold change vs veh, GTPBP10 / RFU, CNEP1R1 / Fold change vs veh, CNEP1R1 / RFU, BIVM-ERCC5 /// ERCC5 / Fold change vs veh, BIVM-ERCC5 /// ERCC5 / RFU, ILF3 / Fold change vs veh, ILF3 / RFU 11762660_at / Fold change /veh 11762660_at / RFU VCAN (11757783_s_at) / Fold change /veh VCAN (11757783_s_at) / RFU DDX43 (11728927_at) / Fold change /veh DDX43 (11728927_at) / RFU KRT8 (11758188_x_at) / Fold change /veh KRT8 (11758188_x_at) / RFU NKD1 (11759106_at) / Fold change /veh NKD1 (11759106_at) / RFU SRD5A1 (11742802_a_at) / Fold change /veh SRD5A1 (11742802_a_at) / RFU TPSAB1 /// TPSB2 (11721975_s_at) / Fold change /veh TPSAB1 /// TPSB2 (11721975_s_at) / RFU GSTM3 (11746129_a_at) / Fold change /veh GSTM3 (11746129_a_at) / RFU IL23R (11737362_x_at) / Fold change /veh IL23R (11737362_x_at) / RFU TMEM51 (11727254_a_at) / Fold change /veh TMEM51 (11727254_a_at) / RFU PIWIL2 (11732686_x_at) / Fold change /veh PIWIL2 (11732686_x_at) / RFU ORM1 (11744905_x_at) / Fold change /veh ORM1 (11744905_x_at) / RFU CCDC152 (11743942_at) / Fold change /veh CCDC152 (11743942_at) / RFU ECM1 (11717891_a_at) / Fold change /veh ECM1 (11717891_a_at) / RFU IL23R (11748794_a_at) / Fold change /veh IL23R (11748794_a_at) / RFU TNFAIP8L3 (11732012_x_at) / Fold change /veh TNFAIP8L3 (11732012_x_at) / RFU MBOAT4 (11741988_at) / Fold change /veh MBOAT4 (11741988_at) / RFU 11764193_at / Fold change /veh 11764193_at / RFU TMEM53 (11763286_at) / Fold change /veh TMEM53 (11763286_at) / RFU MAGEB2 (11727129_at) / Fold change /veh MAGEB2 (11727129_at) / RFU TMEM200A (11744735_a_at) / Fold change /veh TMEM200A (11744735_a_at) / RFU CCDC152 (11751479_a_at) / Fold change /veh CCDC152 (11751479_a_at) / RFU FAM211A (11726209_a_at) / Fold change /veh FAM211A (11726209_a_at) / RFU RGS16 (11746705_a_at) / Fold change /veh RGS16 (11746705_a_at) / RFU VCAN (11755009_s_at) / Fold change /veh VCAN (11755009_s_at) / RFU RHOB (11743442_s_at) / Fold change /veh RHOB (11743442_s_at) / RFU RGS16 (11720943_a_at) / Fold change /veh RGS16 (11720943_a_at) / RFU RGS16 (11720944_at) / Fold change /veh RGS16 (11720944_at) / RFU, VPS4B / Fold change vs veh, VPS4B / RFU, CREB1 / Fold change vs veh, CREB1 / RFU, DNAJC13 / Fold change vs veh, DNAJC13 / RFU, GNAQ / Fold change vs veh, GNAQ / RFU, CDK5R1 / Fold change vs veh, CDK5R1 / RFU, ZRANB3 / Fold change vs veh, ZRANB3 / RFU, CUL4A / Fold change vs veh, CUL4A / RFU, CCNY / Fold change vs veh, CCNY / RFU, UFL1 / Fold change vs veh, UFL1 / RFU, COG3 / Fold change vs veh, COG3 / RFU, DIAPH2 / Fold change vs veh, DIAPH2 / RFU, SKA2 / Fold change vs veh, SKA2 / RFU, AFF3 / Fold change vs veh, AFF3 / RFU, LMF1 / Fold change vs veh, LMF1 / RFU, IPO11 / Fold change vs veh, IPO11 / RFU, DFFB / Fold change vs veh, DFFB / RFU, FOXP1 / Fold change vs veh, FOXP1 / RFU, CARD8 / Fold change vs veh, CARD8 / RFU, STRN3 / Fold change vs veh, STRN3 / RFU, ADK / Fold change vs veh, ADK / RFU, RASSF2 / Fold change vs veh, RASSF2 / RFU, WIPF1 / Fold change vs veh, WIPF1 / RFU, LARP1B / Fold change vs veh, LARP1B / RFU, RASA1 / Fold change vs veh, RASA1 / RFU, RB1 / Fold change vs veh, RB1 / RFU, PPFIA1 / Fold change vs veh, PPFIA1 / RFU, MAT2A / Fold change vs veh, MAT2A / RFU, CCT5 / Fold change vs veh, CCT5 / RFU, WDR92 / Fold change vs veh, WDR92 / RFU, CUX1 / Fold change vs veh, CUX1 / RFU, TTC7A / Fold change vs veh, TTC7A / RFU, TMEM135 / Fold change vs veh, TMEM135 / RFU, DEPTOR / Fold change vs veh, DEPTOR / RFU, CPM / Fold change vs veh, CPM / RFU, DNAJB6 / Fold change vs veh, DNAJB6 / RFU, CACNA2D3 / Fold change vs veh, CACNA2D3 / RFU, DTX4 / Fold change vs veh, DTX4 / RFU, TFCP2 / Fold change vs veh, TFCP2 / RFU, GMCL1 /// GMCL1P1 / Fold change vs veh, GMCL1 /// GMCL1P1 / RFU, AEBP2 / Fold change vs veh, AEBP2 / RFU, SNHG1 /// SNORD22 /// SNORD25 /// SNORD26 /// SNORD27 /// SNORD28 /// SNORD29 /// SNORD31 / Fold change vs veh, SNHG1 /// SNORD22 /// SNORD25 /// SNORD26 /// SNORD27 /// SNORD28 /// SNORD29 /// SNORD31 / Fold change (Aza/veh), C12orf56 (ProbeSet 11735607_a_at) / Fold change (ACY-1035/veh), C12orf56 (ProbeSet 11735607_a_at) / Fold change (Aza/veh), FGFR1OP (ProbeSet 11751329_s_at) / Fold change (ACY-1035/veh), FGFR1OP (ProbeSet 11751329_s_at) / Fold change (Aza/veh), VPS36 (ProbeSet 11739960_a_at) / Fold change (ACY-1035/veh), VPS36 (ProbeSet 11739960_a_at) / RFU SYPL1 (11715823_x_at) / Fold change /veh SYPL1 (11715823_x_at) / RFU IGFBP7 (11715501_s_at) / Fold change /veh IGFBP7 (11715501_s_at) / RFU REEP3 (11722064_at) / Fold change /veh REEP3 (11722064_at) / RFU IGLL1 (11728026_x_at) / Fold change /veh IGLL1 (11728026_x_at): dose or concentration left out as unconfirmed
Conditions: MV-4-11 cells, 48 hours

Question: How did the “Fold change /veh CAMK2N1 (11719241_x_at)” value turn out when `Nc1ncn([C@@H]2O[C@H](CO)[C@@H](O)[C@H]2O)c(=O)n1` [azacitidine] was run?
Answer: 0.94
